# From patent US20150056702A1, “METHOD AND KIT FOR CULTURING STEM CELLS” (China Medical University, priority 2013, published 2015)
# Tested on: Pou5fl-GFP MEF cells
# Experiment: Examination of iPS cell generation efficiency (GFP fluorescence)
# Type: cell-based, mouse
# Source text: The MEF cells were isolated from Pou5fl-GFP transgenic mice (The Jackson lab). The pcDNA-Oct4, pcDNA-Sox2, pcDNA-c-Myc, and pcDNA-Klf4 plasmids were introduced once every two days (4 times total) into the Pou5fl-GFP MEF cells to generate iPS cells through co-transfection. The medium was changed to BP-containing medium 6 days post-transfection, and the medium was exchanged everyday. On day 9, the MEF cells were passaged onto feeder cells provided by Example 1 and the GFP-positive clones were observed. Finally, the GFP fluorescent signals of the iPS cells were detected by a fluorescent microscope. The fluorescent signal intensity is directly proportional to the cell generation efficiency.
# This example includes two groups, BP (T+P) and BP (T), wherein BP (T+P) refers to the group cultured with the experimental group medium (BP10) post-transfection and after placing onto feeder cells, and BP (T) refers to the group cultured with the experimental group medium (BP10) post-transfection.
smiles,measurement,setting,value
"CCCC=C1OC(=O)c2ccccc21 [BP, n-butylidenephthalide]",GFP fluorescence intensity in the iPS cells formed,"BP (T): BP10 medium post-transfection, Day 7",20.5
same,GFP fluorescence intensity in the iPS cells formed,"BP (T): BP10 medium post-transfection, Day 14",70.5
same,GFP fluorescence intensity in the iPS cells formed,"BP (T): BP10 medium post-transfection, Day 20",65.5
same,GFP fluorescence intensity in the iPS cells formed,"BP (T+P): BP10 medium post-transfection and after placing onto feeder cells, Day 7",27.5
same,GFP fluorescence intensity in the iPS cells formed,"BP (T+P): BP10 medium post-transfection and after placing onto feeder cells, Day 14",82
same,GFP fluorescence intensity in the iPS cells formed,"BP (T+P): BP10 medium post-transfection and after placing onto feeder cells, Day 20",92.5
same,GFP fluorescent signals (iPS cell generation efficiency),"BP-containing iPS cell medium vs control group (without BP), result in words",higher GFP fluorescent signals
